Data taken from the OligoGym collection.
Oligonucleotides are written 5' to 3', each unit as a sugar letter and its base; * is a phosphorothioate linkage, no mark a phosphodiester; rarer units and linkages stand in square brackets, end groups in braces. Plain capitals give the bases only. d = 2'-deoxy (DNA); r = 2'-OH (RNA)

These substances were tested against DENND5A (assay: reporter assay of Huesken 2005). Settings: siRNA.
Note: test concentration or dose not given here.

Substance | normalised inhibition (eCFP-eYFP dual reporter) [%]
sense rUrCrUrUrGrArUrUrCrArGrArArCrGrUrArGrGdTdT / antisense rCrCrUrArCrGrUrUrCrUrGrArArUrCrArArGrAdAdG | 29.1
sense rUrCrUrUrUrCrArArUrGrCrCrGrUrCrGrArUrUdTdT / antisense rArArUrCrGrArCrGrGrCrArUrUrGrArArArGrAdCdA | 52.7
sense rUrGrArArGrArGrGrUrGrArCrUrArGrCrArArGdTdT / antisense rCrUrUrGrCrUrArGrUrCrArCrCrUrCrUrUrCrAdTdA | 68.6
sense rUrGrArArGrGrArArUrGrCrCrGrCrArArUrArAdTdT / antisense rUrUrArUrUrGrCrGrGrCrArUrUrCrCrUrUrCrAdGdC | 77.7
sense rUrGrArArUrGrUrUrCrGrGrArCrArCrCrUrArCdTdT / antisense rGrUrArGrGrUrGrUrCrCrGrArArCrArUrUrCrAdAdC | 49
sense rUrGrArUrCrUrCrCrUrGrGrArArArGrGrArUrCdTdT / antisense rGrArUrCrCrUrUrUrCrCrArGrGrArGrArUrCrAdCdA | 44.1
sense rUrGrCrArArArArCrUrUrUrGrArUrArArArGrCdTdT / antisense rGrCrUrUrUrArUrCrArArArGrUrUrUrUrGrCrAdTdT | 46
sense rUrGrCrArGrGrArGrUrUrCrArArCrArUrCrArCdTdT / antisense rGrUrGrArUrGrUrUrGrArArCrUrCrCrUrGrCrAdAdT | 62.5
sense rUrGrCrCrCrGrGrCrUrGrCrArArGrCrCrUrUrGdTdT / antisense rCrArArGrGrCrUrUrGrCrArGrCrCrGrGrGrCrAdAdT | 56.4
sense rUrGrCrCrGrCrArArUrArArGrArCrCrArArGrAdTdT / antisense rUrCrUrUrGrGrUrCrUrUrArUrUrGrCrGrGrCrAdTdT | 69.3
sense rUrGrCrCrGrCrUrCrCrCrArCrCrUrCrCrUrGrGdTdT / antisense rCrCrArGrGrArGrGrUrGrGrGrArGrCrGrGrCrAdCdC | 24.9
sense rUrGrGrArUrGrArCrCrGrGrUrCrArArArGrCrUdTdT / antisense rArGrCrUrUrUrGrArCrCrGrGrUrCrArUrCrCrAdGdG | 67.7
sense rUrGrGrGrGrUrCrUrArUrGrGrGrCrCrArArUrAdTdT / antisense rUrArUrUrGrGrCrCrCrArUrArGrArCrCrCrCrAdGdA | 66.7
sense rUrGrUrUrUrGrCrArGrArUrUrArUrGrArGrGrCdTdT / antisense rGrCrCrUrCrArUrArArUrCrUrGrCrArArArCrAdTdC | 38.5
sense rUrUrArCrCrArGrArGrArCrUrGrArUrGrArCrUdTdT / antisense rArGrUrCrArUrCrArGrUrCrUrCrUrGrGrUrArAdTdG | 28.8
sense rUrUrCrArUrUrGrArCrArArCrArArArArUrArAdTdT / antisense rUrUrArUrUrUrUrGrUrUrGrUrCrArArUrGrArAdAdG | 97.8
sense rUrUrCrCrUrArCrGrArGrCrUrUrCrUrUrArArGdTdT / antisense rCrUrUrArArGrArArGrCrUrCrGrUrArGrGrArAdTdG | 59.8
sense rUrUrCrCrUrUrGrArUrUrCrGrUrGrUrGrCrUrGdTdT / antisense rCrArGrCrArCrArCrGrArArUrCrArArGrGrArAdTdT | 22.1
sense rUrUrCrGrUrGrUrGrCrUrGrCrArGrArCrArUrUdTdT / antisense rArArUrGrUrCrUrGrCrArGrCrArCrArCrGrArAdTdC | 40.2
sense rUrUrCrUrGrGrGrGrUrCrUrArUrGrGrGrCrCrAdTdT / antisense rUrGrGrCrCrCrArUrArGrArCrCrCrCrArGrArAdAdA | 63.2
sense rUrUrGrArCrCrArArGrArUrGrCrArGrUrArGrGdTdT / antisense rCrCrUrArCrUrGrCrArUrCrUrUrGrGrUrCrArAdAdG | 57.9
sense rUrUrGrArGrArArGrArArCrArUrUrCrArArArUdTdT / antisense rArUrUrUrGrArArUrGrUrUrCrUrUrCrUrCrArAdTdG | 54.7
sense rUrUrGrCrArUrUrCrCrUrArCrGrArGrCrUrUrCdTdT / antisense rGrArArGrCrUrCrGrUrArGrGrArArUrGrCrArAdAdG | 50.8
sense rUrUrUrCrArCrUrCrArGrArUrGrUrUrUrGrCrAdTdT / antisense rUrGrCrArArArCrArUrCrUrGrArGrUrGrArArAdCdG | 42.4
sense rUrUrUrGrGrGrUrUrUrGrCrCrCrUrCrArCrArUdTdT / antisense rArUrGrUrGrArGrGrGrCrArArArCrCrCrArArAdTdG | 73.4

What follows are substances tested against P2RX3 (assay: reporter assay of Huesken 2005). Settings: siRNA.

Substance | normalised inhibition (eCFP-eYFP dual reporter) [%]
sense rArArCrCrGrArGrUrArGrUrUrCrArGrCrUrUrCdTdT / antisense rGrArArGrCrUrGrArArCrUrArCrUrCrGrGrUrUdGdA | 62
sense rArArGrArCrCrUrGrCrCrGrCrUrUrCrCrArCrCdTdT / antisense rGrGrUrGrGrArArGrCrGrGrCrArGrGrUrCrUrUdCdA | 39.9
sense rArArUrCrArGrArUrGrCrArArGrGrArUrUrCrUdTdT / antisense rArGrArArUrCrCrUrUrGrCrArUrCrUrGrArUrUdTdT | 79.2
sense rArCrArGrCrCrArGrGrGrArCrArUrGrArArGrAdTdT / antisense rUrCrUrUrCrArUrGrUrCrCrCrUrGrGrCrUrGrUdCdA | 78.1
sense rArCrArGrCrUrCrUrGrUrGrCrUrCrCrGrGrArCdTdT / antisense rGrUrCrCrGrGrArGrCrArCrArGrArGrCrUrGrUdAdG | 59.2
sense rArCrCrArGrUrArCrArArArGrCrCrArArGrArAdTdT / antisense rUrUrCrUrUrGrGrCrUrUrUrGrUrArCrUrGrGrUdCdG | 82.9
sense rArCrCrArUrCrGrGrGrArUrCrArUrCrArArCrCdTdT / antisense rGrGrUrUrGrArUrGrArUrCrCrCrGrArUrGrGrUdCdC | 25.1
sense rArCrCrCrGrGrCrUrCrGrArCrArGrCrGrUrUrUdTdT / antisense rArArArCrGrCrUrGrUrCrGrArGrCrCrGrGrGrUdGdA | 94.1
sense rArCrCrUrGrUrGrArGrArUrCrCrArGrGrGrCrUdTdT / antisense rArGrCrCrCrUrGrGrArUrCrUrCrArCrArGrGrUdCdC | 50.2
sense rArCrGrCrCrArArCrArGrArGrUrCrArUrGrGrAdTdT / antisense rUrCrCrArUrGrArCrUrCrUrGrUrUrGrGrCrGrUdAdG | 89.2
sense rArCrGrCrCrArCrCrUrCrArGrGrGrCrArCrCrUdTdT / antisense rArGrGrUrGrCrCrCrUrGrArGrGrUrGrGrCrGrUdCdA | 8.6
sense rArCrUrCrCrUrUrCrArCrCrCrGrGrCrUrCrGrAdTdT / antisense rUrCrGrArGrCrCrGrGrGrUrGrArArGrGrArGrUdAdT | 80.2
sense rArCrUrUrCrArCrUrArUrUrUrUrCrArUrCrArAdTdT / antisense rUrUrGrArUrGrArArArArUrArGrUrGrArArGrUdTdC | 92.9
sense rArCrUrUrUrGrUrArGrGrGrUrGrGrGrUrUrUrUdTdT / antisense rArArArArCrCrCrArCrCrCrUrArCrArArArGrUdAdG | 89.4
sense rArGrArCrUrArCrGrCrUrGrArArArArUrCrGrCdTdT / antisense rGrCrGrArUrUrUrUrCrArGrCrGrUrArGrUrCrUdCdA | 77.1
sense rArGrGrArGrArArArUrArCrCrGrCrUrGrUrGrUdTdT / antisense rArCrArCrArGrCrGrGrUrArUrUrUrCrUrCrCrUdCdA | 71.8
sense rArGrGrUrGrGrArCrArCrArGrUrGrGrArArArCdTdT / antisense rGrUrUrUrCrCrArCrUrGrUrGrUrCrCrArCrCrUdCdC | 91.4
sense rArGrUrArCrArArArGrCrCrArArGrArArGrUrUdTdT / antisense rArArCrUrUrCrUrUrGrGrCrUrUrUrGrUrArCrUdGdG | 99.5
sense rArGrUrCrGrGrUrGrGrUrUrGrUrGrArArGrArGdTdT / antisense rCrUrCrUrUrCrArCrArArCrCrArCrCrGrArCrUdTdG | 64.9
sense rArGrUrUrCrArGrCrUrUrCrUrGrArUrCrArUrCdTdT / antisense rGrArUrGrArUrCrArGrArArGrCrUrGrArArCrUdAdC | 72.3
sense rArUrCrArArGrArArCrArGrCrArUrCrCrGrUrUdTdT / antisense rArArCrGrGrArUrGrCrUrGrUrUrCrUrUrGrArUdGdA | 70.6
sense rArUrCrGrGrGrArUrCrArUrCrArArCrCrGrArGdTdT / antisense rCrUrCrGrGrUrUrGrArUrGrArUrCrCrCrGrArUdGdG | 39.3
sense rArUrGrUrGrUrCrUrGrArUrUrArCrGrUrGrArCdTdT / antisense rGrUrCrArCrGrUrArArUrCrArGrArCrArCrArUdCdC | 33.9
sense rArUrUrGrUrUrArCrUrGrArArArArUrCrArGrAdTdT / antisense rUrCrUrGrArUrUrUrUrCrArGrUrArArCrArArUdCdA | 74.6
sense rCrArArGrGrArUrUrCrUrGrCrCrCrArGrArGrAdTdT / antisense rUrCrUrCrUrGrGrGrCrArGrArArUrCrCrUrUrGdCdA | 102
sense rCrArGrGrCrUrArCrArArCrUrUrCrArGrGrUrUdTdT / antisense rArArCrCrUrGrArArGrUrUrGrUrArGrCrCrUrGdGdG | 95.5
sense rCrArUrCrArArCrCrGrArGrUrArGrUrUrCrArGdTdT / antisense rCrUrGrArArCrUrArCrUrCrGrGrUrUrGrArUrGdAdT | 74.7
